Data taken from patent publication US20080118494A1, “Compositions For Detection Of Latent Hiv Reactivation And Methods Of Using The Same” (priority 2004, published 2008).

Key:
[1] = test system: latent HIV-1 infection in human thymocytes derived from SCID-hu (Thy/liv) mice; assay: Ex vivo reactivation of latent HIV-1 in thymocytes from infected SCID-hu (Thy/Liv) mice, EYFP flow cytometry; format: cell-based; details: for EYFP+ cells: 24 h after depletion of EYFP+ cells, untreated 50; for induction of latent HIV-1 expression in thymocytes: range among tissue samples of four animals
Protocol: SCID-hu (Thy/liv) mice were infected with HIV-1 NLENY1-IRES, and thymocytes were isolated 2-4 weeks following infection. Cells were cultured for two days in the presence of AZT and indinavir to stop de novo infection and then subjected to fluorescence activated cell sorting to remove all EYFP^+ cells. Immediately following cell separation, the cells were seeded at a concentration of 1×10^6 cell/ml, cultured in supplemented RPMI 1640 to determine levels of spontaneous reactivation, stimulated with PMA, TNF-α, activating anti-CD28 antibody (clone 5D10) and the […] sodium butyrate (NaBu; two animals only). Levels of reactivation achieved in HIV-1 infected thymocytes derived from 4 different SCID-hu (Thy/liv) mice following ex vivo reactivation with the indicated stimulators are depicted as fold induction of […].
Isolation of thymocytes from SCID-hu (Thy/Liv) mice. Thy/Liv implants from the infected mice were harvested 2-4 weeks post infection and single cell suspensions generated by dissociation of the tissue. Thymocytes were isolated by Ficoll-Paque density gradient centrifugation and were cultured for two days in RPMI 1640 supplemented with 10% heat-inactivated FBS, 2 mM L-glutamine, 100 U/ml of penicillin, and 100 μg/ml of streptomycin, in the presence of indinavir and AZT, to inhibit de novo infection. Productively infected thymocytes, which expressed EYFP, were then removed from the cultures by FACS sorting. Purity of the resulting EYFP-negative cell population was determined by flow cytometric analysis for EYFP and was usually greater than 99.9%. Immediately following the sort, cells were stimulated. HIV-1 reactivation, as indicated by the de novo expression of EYFP was quantified by flow cytometry, acquiring at least 1×10^6 cells per sample in the live gate.
Reactivation of latent HIV-1 infection by anti-CD28 antibodies in human thymocytes derived from SCID-hu (Thy/liv) mice. Whether activating anti-CD28 antibody would also reactivate latent HIV-1 in a system where latency in primary cells was achieved under in vivo conditions was tested. For this purpose, a modification of the HIV-1 established SCID-hu (Thy/Liv) mouse system was used that has been previously used for the study of HIV-1 latency. Brooks et al., Nat. Med. 7:459-464 (2001). SCID-hu (Thy/Liv) mice were infected with HIV-1 NLENY1-IRES to allow for the easy and direct detection of infected cells using flow cytometry. Levy et al., Proc. Nat. Acad. Sci. 101:4204-4209 (2004). […] Levels of infection were determined by flow cytometry for EYFP, and varied in the different animals between 0.5 and 6% of the total thymocyte population. […] The cultures were then subjected to fluorescence activated cell sorting to remove all EYFP positive cells. […]

[2] = test system: latent HIV-1 infection in bulk population of latently infected JLTRG cells; assay: Reactivation of latent HIV-1 in a bulk population of latently infected cells, flow cytometry; format: cell-based; details: optimal concentration of each compound, day 57 bulk population, 100,000 viable cells counted
Protocol: (A) Jurkat cells were infected with an EGFP expressing, replication incompetent reporter virus and the level of productive HIV-1 infection at each indicated time-point was directly assessed by flow cytometric analysis for EGFP expression (untreated; black circles). Levels of initial non-productive and later on latent HIV-1 infection was determined 24 hours following TNF-α stimulation (black squares). The results represent the mean ±S.D. of three independent experiments.
a) Quantification of the HIV-1 reactivating capabilities of test compounds. Following infection, HIV-1 integrates into the cellular genome. Integration is random, although HIV-1 preferentially integrates into euchromatin structures. Latency development can be thus influenced by a multitude of factors that alter gene expression or DNA structure, such as divergent gene expression patterns or the cell cycle stage at the time point of viral integration. Although the reporter cell lines are representative for the majority of latently infected cells and reliably identify most reactivating agents during the screening effort, they can not allow quantification of the capability of the individual compounds to reactivate HIV-1 infection from a diverse population of latently infected cells. To account for the influence that the side of integration of a latent virus can have on a compounds ability to reactivate the virus, a bulk population of latently infected cells (FIG. 7) was established. Following infection of JLTRG cells with HIV-1 NL43, a rapid increase of the level of infection can be observed. On day 3, an average 27% of the cells were productively infected. […] Until day 15, the percentage of productively infected cells rapidly declined to 3% of the overall cell population. At this time point, an additional 5% of the cells were non-productively infected. […] Since 1×10^6 cells were initially infected, and virus mediated inhibition of cell proliferation influences the relative level of infection over time can be excluded, it can be calculated that the latently infected cell population should consist of […] individual latently infected cells. This bulk population of cells allows quantification of the capability of the respective compounds to reactivate latent HIV-1. […] Each compound was titrated over a two-log concentration range to allow for optimal reactivation. The results for the optimal concentration of each compound are depicted in FIG. 7B. […] TNF-α (10 ng/ml) reactivated latent HIV-1 infection in 5% of the cells, whereas the DNA histone deacetylase inhibitors trichostatin A (TSA) and sodium butyrate (NaBu) reactivated latent HIV-1 infection in only 3% or 2.5% of the cells, respectively. To achieve an accurate estimate of the differences in the capability of different agents to reactivate HIV-1 infection it is important to run a sufficiently high number of cells. For this flow cytometry based analysis, 100,000 cells viable per sample were counted.

| Compound | EYFP+ cells [1] | induction of latent HIV-1 expression in thymocytes [1] | cells in which latent HIV-1 infection was reactivated [2] |
| --- | --- | --- | --- |
| CCCCCCCCCCCCCC(=O)O[C@@H]1[C@@H](C)[C@@]2(O)[C@@H](C=C(CO)C[C@]3(O)C(=O)C(C)=C[C@@H]23)[C@@H]2C(C)(C)[C@]12OC(C)=O [PMA, 13-phorbol-12-myristate acetate] | 260 cells of 1×10^6 cells | 2.5-7 fold | 7% |
| TNF-α | 250 cells of 1×10^6 cells | 3-6 fold | 5% |
